The values below come from PubChem BioAssay (NCI).

Among the test systems are NCI-H23 lung; TK-10 renal; BT-549 breast; HL-60(TB) leukemia; NCI-H460 lung; HOP-62 NSCLC; UACC-62 melanoma; RXF 393 renal; A549 NSCLC; OVCAR-8 ovarian; PC-3 prostate; NCI/ADR-RES ovarian; SNB-19 CNS; HOP-92 NSCLC; A498 renal; SW-620 colon; T-47D breast; EKVX NSCLC; OVCAR-5 ovarian; K-562 leukemia.
Assay in all cases: NCI tumour cell line growth inhibition, 48 h

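Briefly, cells in 96-well plates were exposed to five compound concentrations for 48 h, and endpoints were estimated by linear interpolation. TGI marks complete inhibition of growth.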 Bounds are passed on as bounds.

On to `Cc1cc(N)ccc1N=Nc1ccc(S(=O)(=O)CCOS(=O)(=O)O)cc1`, for which the TGI in the experiment with NCI-H23 lung is 24.5 µM; in the experiment on TK-10 renal, 27.5 µM; in the experiment with BT-549 breast, 14.6 µM; with HL-60(TB) leukemia, above 38.1 µM; in the experiment on NCI-H460 lung, 12.2 µM; with HOP-62 NSCLC it was 22.6 µM. The TGI is 20.3 µM in the experiment with UACC-62 melanoma; 23.7 µM in the experiment on RXF 393 renal; 21.5 µM in the experiment on A549 NSCLC; 5.89 µM with OVCAR-8 ovarian; 12.7 µM in the experiment on PC-3 prostate; above 100 µM with NCI/ADR-RES ovarian. Besides, the TGI was 19.3 µM with SNB-19 CNS; 19.5 µM in the experiment on HOP-92 NSCLC; 31.1 µM in the experiment on A498 renal; 16.1 µM in the experiment with SW-620 colon; above 59.1 µM in the experiment with T-47D breast; above 53 µM with EKVX NSCLC. In the experiment with OVCAR-5 ovarian, this compound yielded a TGI of 26.4 µM.

On to `COc1ccc(/C=N/n2c(=O)[nH]c3ccccc3c2=O)cc1`, for which the TGI in the experiment on NCI-H23 lung, in the experiment on TK-10 renal, with BT-549 breast, in the experiment with NCI-H460 lung, in the experiment with HOP-62 NSCLC and in the experiment on UACC-62 melanoma was above 100 µM each time. The TGI in the experiment on A549 NSCLC, in the experiment with K-562 leukemia, in the experiment on OVCAR-8 ovarian, in the experiment with PC-3 prostate, in the experiment on NCI/ADR-RES ovarian and in the experiment with SNB-19 CNS was above 100 µM throughout. The TGI in the experiment on HOP-92 NSCLC, in the experiment on A498 renal, with SW-620 colon, in the experiment with T-47D breast, in the experiment with EKVX NSCLC and in the experiment with OVCAR-5 ovarian was above 100 µM throughout.

In the case of `CCOC(=O)N1CC2(C)C=CC1C(C(=O)OC)C2` (centres undefined), the TGI in the experiment with NCI-H23 lung, with TK-10 renal, in the experiment on BT-549 breast, in the experiment with HL-60(TB) leukemia, in the experiment on NCI-H460 lung and with HOP-62 NSCLC was above 100 µM throughout. The TGI with UACC-62 melanoma, with RXF 393 renal, in the experiment with A549 NSCLC, in the experiment on K-562 leukemia, with OVCAR-8 ovarian and in the experiment with PC-3 prostate was above 100 µM each time. The TGI in the experiment with NCI/ADR-RES ovarian, with SNB-19 CNS, with A498 renal, in the experiment on SW-620 colon, in the experiment on T-47D breast and with EKVX NSCLC was above 100 µM throughout. The TGI in the experiment on OVCAR-5 ovarian was above 100 µM.

As to `CN(C)CC1CCCC(CN2CCCCC2)C1=O` (centres undefined), the TGI in the experiment with NCI-H23 lung is 35.8 µM; in the experiment on TK-10 renal, 21.3 µM; in the experiment with BT-549 breast, 28.7 µM; in the experiment on HL-60(TB) leukemia, 11.8 µM; in the experiment on NCI-H460 lung it was above 68.6 µM; in the experiment with HOP-62 NSCLC, above 100 µM. The TGI was 33.5 µM with UACC-62 melanoma; 26.6 µM with RXF 393 renal; above 76.4 µM in the experiment on A549 NSCLC; 31.5 µM with OVCAR-8 ovarian; 29 µM in the experiment with PC-3 prostate; 14.6 µM with NCI/ADR-RES ovarian. Besides, the TGI was above 100 µM in the experiment with SNB-19 CNS; 3.8 µM in the experiment with HOP-92 NSCLC; above 71.3 µM in the experiment with A498 renal; 3.74 µM in the experiment with SW-620 colon; 4.85 µM in the experiment on T-47D breast; 28.7 µM with EKVX NSCLC. This compound came in with a TGI in the experiment with OVCAR-5 ovarian of 46.5 µM.

As to `O=c1[nH]c(=O)n(C2OC(CO)C(O)C2O)c2ncc(-c3ccc(-c4ccccc4)cc3)nc12` (centres undefined), the TGI in the experiment with NCI-H23 lung, with TK-10 renal, in the experiment with BT-549 breast, in the experiment with NCI-H460 lung, in the experiment with HOP-62 NSCLC and in the experiment on UACC-62 melanoma was above 20 µM throughout. Besides, the TGI in the experiment with RXF 393 renal, in the experiment with A549 NSCLC, with K-562 leukemia, in the experiment on OVCAR-8 ovarian, in the experiment with PC-3 prostate and with NCI/ADR-RES ovarian was above 20 µM each time. Also, the TGI in the experiment on SNB-19 CNS, in the experiment on HOP-92 NSCLC, with A498 renal, in the experiment with SW-620 colon, in the experiment on T-47D breast and in the experiment on EKVX NSCLC was above 20 µM in each case. The compound also returned a TGI in the experiment with OVCAR-5 ovarian above 20 µM.

On to `C=CCOc1ccc(/C(N=Nc2ccc(C)cc2)=N/NC(=O)c2ccccc2)cc1OC`, for which the TGI with NCI-H23 lung was 69.1 µM; in the experiment on TK-10 renal, above 100 µM; in the experiment on BT-549 breast, 47.1 µM; in the experiment on HL-60(TB) leukemia, 29 µM; with NCI-H460 lung, 48 µM; in the experiment on HOP-62 NSCLC, above 100 µM. In addition, the TGI in the experiment on UACC-62 melanoma was 31.6 µM; in the experiment on A549 NSCLC, 64.9 µM; with OVCAR-8 ovarian, 91.4 µM; with PC-3 prostate it was above 100 µM; in the experiment on NCI/ADR-RES ovarian, above 100 µM; in the experiment with SNB-19 CNS, above 100 µM. The TGI in the experiment with HOP-92 NSCLC was 41.8 µM; in the experiment with A498 renal, 72 µM; in the experiment on SW-620 colon, above 100 µM; in the experiment with T-47D breast, 45.3 µM; in the experiment with EKVX NSCLC, above 100 µM; in the experiment with OVCAR-5 ovarian, above 100 µM.

Take `CC1(C)O[C@H]([C@H](O)c2nnc3ccc(Cl)nn23)[C@@H]([C@H]2COC(C)(C)O2)O1`: the TGI with NCI-H23 lung, with TK-10 renal, in the experiment with BT-549 breast, in the experiment on HL-60(TB) leukemia, with NCI-H460 lung and in the experiment with HOP-62 NSCLC was above 100 µM throughout. Moreover, the TGI with UACC-62 melanoma, in the experiment on RXF 393 renal, in the experiment on A549 NSCLC, in the experiment with OVCAR-8 ovarian, with PC-3 prostate and in the experiment on NCI/ADR-RES ovarian was above 100 µM each time. Moreover, the TGI with SNB-19 CNS, with A498 renal, in the experiment with SW-620 colon, in the experiment with T-47D breast, in the experiment on EKVX NSCLC and with OVCAR-5 ovarian was above 100 µM in each case.

`Cc1cc2nc3c(C#N)c(-c4ccccc4)/c(=C\Nc4ccc(Cl)cc4)c(=O)n3c2cc1C`: the TGI with NCI-H23 lung, with TK-10 renal, in the experiment on BT-549 breast, with NCI-H460 lung, in the experiment with HOP-62 NSCLC and in the experiment on RXF 393 renal was above 100 µM each time. The TGI with A549 NSCLC, in the experiment with OVCAR-8 ovarian, with PC-3 prostate, in the experiment on NCI/ADR-RES ovarian, in the experiment with SNB-19 CNS and in the experiment with A498 renal was above 100 µM each time. The TGI in the experiment with SW-620 colon, with T-47D breast, in the experiment with EKVX NSCLC and in the experiment on OVCAR-5 ovarian was above 100 µM throughout.

With `Cc1n[n+](CC(=O)c2ccccc2)c2sc(N)nn12`, the TGI in the experiment with NCI-H23 lung, with TK-10 renal, in the experiment on BT-549 breast, in the experiment with NCI-H460 lung, in the experiment with HOP-62 NSCLC and in the experiment on UACC-62 melanoma was above 100 µM throughout. In addition, the TGI in the experiment with RXF 393 renal, with A549 NSCLC, in the experiment with K-562 leukemia, in the experiment with OVCAR-8 ovarian, in the experiment with PC-3 prostate and in the experiment with NCI/ADR-RES ovarian was above 100 µM throughout. Besides, the TGI with SNB-19 CNS, in the experiment with A498 renal, with SW-620 colon, in the experiment on T-47D breast, with EKVX NSCLC and with OVCAR-5 ovarian was above 100 µM in each case.

For `CC1(C)Oc2ccc3c(=O)c(-c4ccccc4)c(-c4ccccc4)oc3c2C1C(=O)O` (centres undefined), the TGI in the experiment on NCI-H23 lung, in the experiment with TK-10 renal, in the experiment on BT-549 breast, in the experiment on HOP-62 NSCLC, in the experiment with UACC-62 melanoma and in the experiment with RXF 393 renal was above 100 µM each time. The TGI with A549 NSCLC, in the experiment with K-562 leukemia, with OVCAR-8 ovarian, in the experiment on PC-3 prostate, in the experiment on NCI/ADR-RES ovarian and in the experiment on A498 renal was above 100 µM each time. For the same compound, the TGI with T-47D breast, with EKVX NSCLC and in the experiment on OVCAR-5 ovarian was above 100 µM throughout.

Regarding `C=CC(CBr)CCC(Br)C(C)(C)Br` (centres undefined), the TGI in the experiment with NCI-H23 lung, with TK-10 renal, in the experiment with BT-549 breast, in the experiment with NCI-H460 lung, in the experiment on HOP-62 NSCLC and in the experiment with RXF 393 renal was above 10 µM in each case. Also, the TGI in the experiment with A549 NSCLC, with K-562 leukemia, with OVCAR-8 ovarian, with PC-3 prostate, in the experiment on NCI/ADR-RES ovarian and in the experiment on SNB-19 CNS was above 10 µM throughout. Further, the TGI in the experiment on HOP-92 NSCLC, in the experiment with A498 renal, in the experiment on SW-620 colon, in the experiment on T-47D breast, in the experiment with EKVX NSCLC and in the experiment with OVCAR-5 ovarian was above 10 µM in each case.

Regarding `Cc1nnc2sc(Cl)nn12`, the TGI in the experiment with NCI-H23 lung is 34.8 µM; in the experiment with TK-10 renal, 68.5 µM; in the experiment with BT-549 breast, 46.7 µM; in the experiment on NCI-H460 lung it was 37.4 µM; in the experiment on HOP-62 NSCLC, 96 µM; in the experiment with UACC-62 melanoma, 18.9 µM. For the same compound, the TGI was 72.8 µM with A549 NSCLC; 72.9 µM with K-562 leukemia; above 100 µM in the experiment on OVCAR-8 ovarian; 47.2 µM in the experiment on PC-3 prostate; above 100 µM in the experiment on NCI/ADR-RES ovarian; above 100 µM in the experiment with SNB-19 CNS. Besides, the TGI in the experiment with A498 renal was above 100 µM; in the experiment with SW-620 colon it was 16.6 µM; in the experiment on T-47D breast it was 73.4 µM; with EKVX NSCLC, 43.9 µM; in the experiment on OVCAR-5 ovarian it was 44.5 µM.
